The source of these data is US7977349B2, “Substituted quinolones III” (Aicuris GmbH & Co. KG, priority 2006, dated 2011).

SMILES strings stand for the structures. Structures can show the parent of a compound that is named as a salt.

In one series the test system is HCMV. Kind of series: Anti-HCMV (anti-human cytomegalovirus) cytopathogenicity test. Conditions: concentration inhibiting the CPE by 50% vs untreated virus control, HCMV-infected NHDF cells, 6 days, visual assessment. The series is classed as cell-based. The procedure: Anti-HCMV (Anti-Human Cytomegalovirus) Cytopathogenicity Tests The test compounds are employed as 50 millimolar (mM) solutions in dimethyl sulfoxide (DMSO). Ganciclovir®, Foscarnet® and Cidofovir® are used as reference compounds. After the addition of 2 μl of the 50, 5, 0.5 and 0.05 mM DMSO stock solutions respectively to 98 μl portions of cell culture medium in row […] for duplicate determinations, 1:2 dilutions are carried out with 50 μl portions of medium up to row 11 of the 96-well plate. The wells in rows 1 and 12 each contain 50 μl of medium. 150 μl of a suspension of 1×10^4 cells (human prepuce fibroblasts [NHDF]) are then pipetted into each of the wells (row 1=cell control) and, in rows 2-12, a mixture of HCMV-infected and uninfected NHDF cells (M.O.I.=0.001-0.002), i.e. 1-2 infected cells per 1000 uninfected cells. Row 12 (without substance) serves as virus control. The final test concentrations are 250-0.0005 μM. The plates are incubated at 37° C./5% CO2 for 6 days, i.e. until all the cells in the virus controls are infected (100% cytopathogenic effect [CPE]). The wells are then fixed and stained by adding a mixture of formalin and Giemsa's dye (30 minutes), washed with double-distilled water and dried in a drying oven at 50° C. The plates are then assessed visually using an overhead microscope (plaque multiplier from Technomara). The following data can be obtained from the test plates: EC50 (HCMV)=substance concentration in μM which inhibits the CPE (cytopathic effect) by 50% compared with the untreated virus control;
On the technique in general: Protection from cytopathic effect is a common read-out in antiviral testing.

Series [1] concerns NHDF (human prepuce fibroblasts). Kind of series: Cytostatic effects on NHDF cells in the anti-HCMV cytopathogenicity test. Particulars: concentration at which no visible cytostatic effects on NHDF cells are evident vs untreated cell control; 6 days. It is filed as cell-based. As for the experimental part:
(§1) Anti-HCMV (Anti-Human Cytomegalovirus) Cytopathogenicity Tests The test compounds are employed as 50 millimolar (mM) solutions in dimethyl sulfoxide (DMSO). Ganciclovir®, Foscarnet® and Cidofovir® are used as reference compounds. After the addition of 2 μl of the 50, 5, 0.5 and 0.05 mM DMSO stock solutions respectively to 98 μl portions of cell culture medium in row […] for duplicate determinations, 1:2 dilutions are carried out with 50 μl portions of medium up to row 11 of the 96-well plate. The wells in rows 1 and 12 each contain 50 μl of medium. 150 μl of a suspension of 1×10^4 cells (human prepuce fibroblasts [NHDF]) are then pipetted into each of the wells (row 1=cell control) and, in rows 2-12, a mixture of HCMV-infected and uninfected NHDF cells (M.O.I.=0.001-0.002), i.e. 1-2 infected cells per 1000 uninfected cells. Row 12 (without substance) serves as virus control. The final test concentrations are 250-0.0005 μM. The plates are incubated at 37° C./5% CO2 for 6 days, i.e. until all the cells in the virus controls are infected (100% cytopathogenic effect [CPE]). The wells are then fixed and stained by adding a mixture of formalin and Giemsa's dye (30 minutes), washed with double-distilled water and dried in a drying oven at 50° C. The plates are then assessed visually using an overhead microscope (plaque multiplier from Technomara). The following data can be obtained from the test plates: CC50 (NHDF)=substance concentration in μM at which no visible cytostatic effects on the cells are evident compared with the untreated cell control;

Experiment in series [2]: as above
The series is classed as cell-based, human. Particulars: human, concentration at which no visible cytostatic effects on NHDF cells are evident vs untreated cell control. As for the experimental part: as §1

The mark [3] stands for this setting: Human betaherpesvirus 5, NHDF, 144 h.

In the case of `COc1c(N2CCC(C(=O)O)CC2)c(F)cc2c(=O)c(C(=O)NCc3ccc(OC(F)(F)F)cc3C)cn(CC(F)(F)F)c12` [Example 75, 1-[6-Fluoro-8-methoxy-3-({[2-methyl-4-(trifluoromethoxy)benzyl]amino}carbonyl)-4-oxo-1-(2,2,2-trifluoroethyl)-1,4-dihydroquinolin-7-yl]piperidine-4-carboxylic acid diethanolamine salt], in the series with HCMV, it took 2 nM to reach a half-maximal effect (EC50). In addition, the midpoint of cytotoxicity in series [1], the CC50, lay at 47 µM.
For `COc1c(N2CCC(C(=O)O)CC2)c(F)cc2c(=O)c(C(=O)NCc3ccc(OC(F)(F)F)cc3C)cn(CC(F)(F)F)c12` [Example 76, 1-[6-Fluoro-8-methoxy-3-({[2-methyl-4-(trifluoromethoxy)benzyl]amino}carbonyl)-4-oxo-1-(2,2,2-trifluoroethyl)-1,4-dihydroquinolin-7-yl]piperidine-4-carboxylic acid choline salt], the EC50 (commonly the concentration giving half of the maximal effect) in the series on HCMV is 2 nM. It took 47 µM to reach half-maximal cytotoxicity in series [1] (CC50).
Turning to `COc1c(N2CCC(C(=O)O)CC2)c(F)cc2c(=O)c(C(=O)NCc3ccc(OC(F)(F)F)cc3C)cn(CC(F)(F)F)c12` [Example 47, 1-[6-Fluoro-8-methoxy-3-({[2-methyl-4-(trifluoromethoxy)benzyl]amino}carbonyl)-4-oxo-1-(2,2,2-trifluoroethyl)-1,4-dihydroquinolin-7-yl]piperidine-4-carboxylic acid], in the series on HCMV (setting [3]), the midpoint of the response, the EC50, lay at 4 nM. Half-maximal cytotoxicity in series [2] (CC50 at 6 days) was put at 86 µM.
In turn, `COc1c(N2CCC(C(=O)O)CC2)c(F)cc2c(=O)c(C(=O)NCc3ccc(OC(F)(F)F)cc3Cl)cn(CC(F)(F)F)c12` [Example 48, 1-[3-({[2-Chloro-4-(trifluoromethoxy)benzyl]amino}carbonyl)-6-fluoro-8-methoxy-4-oxo-1-(2,2,2-trifluoroethyl)-1,4-dihydroquinolin-7-yl]piperidine-4-carboxylic acid] gave an EC50 in the series on HCMV (setting [3]) of 3 nM. Moreover, the midpoint of cytotoxicity in series [2], the CC50 at 6 days, lay at 20 µM.
On to `COc1c(N2CCC(C(N)=O)CC2)c(F)cc2c(=O)c(C(=O)NCc3ccc(Cl)cc3C)cn(CC(F)(F)F)c12` [Example 28], for which the 50% effective concentration (EC50) in the series with HCMV (setting [3]) stood at 14 nM. In addition, half-maximal cytotoxicity in series [2] (CC50 at 6 days) was put at 21 µM.
The matching figures for `COc1ccc(CNC(=O)c2cn(CC(F)(F)F)c3c(OC)c(N4CCC(C(=O)O)CC4)c(F)cc3c2=O)c(Cl)c1` [Example 55]: 31 nM and 16 µM.
In the same order, the values of `COc1c(N2CCC(C(N)=O)CC2)c(F)cc2c(=O)c(C(=O)NCc3ccc(OC(F)(F)F)cc3C)cn(CC(F)(F)F)c12` [Example 31, 1-[6-Fluoro-8-methoxy-3-({[2-methyl-4-(trifluoromethoxy)benzyl]amino}carbonyl)-4-oxo-1-(2,2,2-trifluoroethyl)-1,4-dihydroquinolin-7-yl]piperidine-4-carboxamide] are 8 nM and 16 µM.
As to `COc1c(N2CCC3(CC2)CNC(=O)C3)c(F)cc2c(=O)c(C(=O)NCc3ccc(OC(F)(F)F)cc3Cl)cn(CC(F)(F)F)c12` [Example 36], in the series with HCMV (setting [3]), the EC50 turned out to be 14 nM. Moreover, in series [2], the midpoint of cytotoxicity, the CC50 at 6 days, lay at 21 µM.
Compound `COc1c(N2CCC(C(=O)O)CC2)c(F)cc2c(=O)c(C(=O)NCc3ccc(OC(F)(F)F)cc3C)cn(CC(F)F)c12` [Example 62] yielded an EC50 in the series with HCMV (setting [3]) of 1 nM. Also, the midpoint of cytotoxicity in series [2], the CC50 at 6 days, lay at 148 µM.
The compound `COc1c(N2CCC(C(=O)O)CC2)c(F)cc2c(=O)c(C(=O)NCc3ccc(Cl)cc3Cl)cn(CC(F)(F)F)c12` [Example 50, 1-[3-{[(2,4-Dichlorobenzyl)amino]carbonyl}-6-fluoro-8-methoxy-4-oxo-1-(2,2,2-trifluoroethyl)-1,4-dihydroquinolin-7-yl]piperidine-4-carboxylic acid] yielded an EC50 in the series on HCMV (setting [3]) of 12 nM. Moreover, the half-maximal cytotoxic concentration (CC50) – broadly, the concentration at which the toxic effect on the cells reaches its halfway point – at 6 days in series [2] came out at 47 µM.
As to `COc1c(N2CCC(C(=O)O)CC2)c(F)cc2c(=O)c(C(=O)NCc3ccc(OC(F)(F)F)cc3C)cn([C@@H]3C[C@@H]3F)c12` [Example 63], in the series on HCMV (setting [3]), the EC50 came out at 8 nM. Further, half-maximal cytotoxicity in series [2] (CC50 at 6 days) was put at 47 µM.
